Source: patent publication US20110039873A1, “SUBSTITUTED PYRAZOLO[1,5-a] PYRIDINE COMPOUNDS HAVING MULTI-TARGET ACTIVITY” (priority 2009, published 2011)

What was measured:
Format in all cases: biochemical
[1] = target: T1, catalytic domain of phosphodiesterase 4B enzyme cloned from human brain (Homo sapiens, UniProt Q07343); assay: PDE4 inhibition assay (PDELight); settings: for IC50: 5 uM cAMP, read-out: PDE 4 Inhibition (IC50 in μM)
T1 construct: the catalytic domain of phosphodiesterase 4B enzyme; purchased Scottish Biomedical
T1 sequence (Q07343 330-659 limits assumed): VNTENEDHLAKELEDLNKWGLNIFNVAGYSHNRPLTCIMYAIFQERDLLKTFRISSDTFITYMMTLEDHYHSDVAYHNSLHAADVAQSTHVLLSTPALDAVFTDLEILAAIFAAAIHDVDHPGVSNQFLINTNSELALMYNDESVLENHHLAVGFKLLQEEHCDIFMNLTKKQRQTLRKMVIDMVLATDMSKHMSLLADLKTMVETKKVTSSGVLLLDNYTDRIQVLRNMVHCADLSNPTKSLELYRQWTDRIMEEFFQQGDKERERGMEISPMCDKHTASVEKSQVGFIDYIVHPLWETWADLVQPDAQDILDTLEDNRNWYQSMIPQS
Experimental: In a 96-well plate, the catalytic domain of phosphodiesterase 4B enzyme (40 mU/well) cloned from human brain (Scottish Biomedical) was combined with 5 uM cAMP substrate (Sigma). […] Using a PDELight® kit (Cambrex), the amount of AMP produced in the reaction from the hydrolysis of cAMP was quantified using PDELight AMP Detection Reagent which converts the AMP directly to ATP. The assay uses luciferase, which catalyses the formation of light from the newly formed ATP and luciferin. […] IC50 calculations were plotted using a nonlinear regression curve fit.

[2] = target: T2, recombinant human phosphodiesterase 10A1 enzyme (Homo sapiens, UniProt Q9Y233); assay: PDE10 inhibition assay (PDELight); settings: for IC50: 1 uM cAMP, read-out: PDE 10 Inhibition (IC50 in μM); for PDE-10 inhibition (in words): Table 2
T2 construct: purchased BPS Biosciences; host or cells: Baculovirus infected Sf9 cells
T2 sequence (Q9Y233 1-779 isoform Q9Y233-1): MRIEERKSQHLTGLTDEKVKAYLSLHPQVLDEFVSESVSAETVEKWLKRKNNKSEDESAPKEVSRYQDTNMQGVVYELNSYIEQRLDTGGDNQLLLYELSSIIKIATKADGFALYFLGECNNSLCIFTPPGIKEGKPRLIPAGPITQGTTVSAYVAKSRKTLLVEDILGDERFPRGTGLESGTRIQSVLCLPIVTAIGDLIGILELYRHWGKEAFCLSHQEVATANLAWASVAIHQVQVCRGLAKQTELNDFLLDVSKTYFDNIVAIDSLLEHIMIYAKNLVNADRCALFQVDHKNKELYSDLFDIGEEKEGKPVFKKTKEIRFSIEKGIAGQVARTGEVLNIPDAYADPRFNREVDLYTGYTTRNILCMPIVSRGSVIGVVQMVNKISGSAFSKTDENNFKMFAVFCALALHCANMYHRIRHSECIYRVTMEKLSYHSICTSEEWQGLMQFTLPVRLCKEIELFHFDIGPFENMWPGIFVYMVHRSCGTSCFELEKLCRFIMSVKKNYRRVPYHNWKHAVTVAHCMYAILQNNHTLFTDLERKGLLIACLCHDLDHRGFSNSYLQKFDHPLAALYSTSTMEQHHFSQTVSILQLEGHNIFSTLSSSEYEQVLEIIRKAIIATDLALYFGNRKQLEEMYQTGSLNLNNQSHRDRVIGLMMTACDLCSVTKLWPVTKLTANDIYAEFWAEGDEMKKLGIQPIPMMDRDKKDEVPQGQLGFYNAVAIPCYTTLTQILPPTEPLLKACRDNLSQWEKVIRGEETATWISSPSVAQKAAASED
Experimental: In a 96-well plate, recombinant human phosphodiesterase 10A1 enzyme (10 U/well) expressed in Baculovirus infected Sf9 cells (BPS Biosciences) was combined with 1 uM cAMP substrate (Sigma). […] Using a PDELight® kit (Cambrex), the amount of AMP produced in the reaction from the hydrolysis of cAMP was quantified using PDELight AMP Detection Reagent which converts the AMP directly to ATP. The assay uses luciferase, which catalyses the formation of light from the newly formed ATP and luciferin. The luminescence was read on a Victor Light 1420 luminometer. IC50 calculations were plotted using a nonlinear regression curve fit.

[3] = target: T3, recombinant full length human JNK3 enzyme (Homo sapiens, UniProt P53779); assay: JNK 3 inhibition assay (ATP depletion, luciferase); settings: for IC50: 10 uM ATP, ATF2 substrate
T3 construct: recombinant full length human JNK2 or JNK3 enzyme; purchased Upstate; host or cells: Sf21 cells
T3 sequence (P53779 whole entry): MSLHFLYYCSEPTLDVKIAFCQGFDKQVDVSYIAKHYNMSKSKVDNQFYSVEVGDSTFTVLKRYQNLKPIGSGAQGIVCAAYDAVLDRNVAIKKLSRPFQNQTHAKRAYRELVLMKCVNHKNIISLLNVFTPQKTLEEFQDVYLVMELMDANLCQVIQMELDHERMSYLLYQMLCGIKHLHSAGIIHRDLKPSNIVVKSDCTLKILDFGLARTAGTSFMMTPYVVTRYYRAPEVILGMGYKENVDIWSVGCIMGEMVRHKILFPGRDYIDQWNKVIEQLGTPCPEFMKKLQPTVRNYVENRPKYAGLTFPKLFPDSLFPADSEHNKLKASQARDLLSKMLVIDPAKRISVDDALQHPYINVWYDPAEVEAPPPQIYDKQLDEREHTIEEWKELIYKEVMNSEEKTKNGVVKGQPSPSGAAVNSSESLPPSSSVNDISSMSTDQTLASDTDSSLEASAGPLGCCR
Experimental: In a 96-well plate, recombinant full length human JNK2 or JNK3 enzyme (40 ng) expressed in Sf21 cells (Upstate) was incubated with the substrate ATF2 (3 uM) for 1 hour in the presence of 10 uM ATP. […] The ATP levels were quantified using luciferase with luminescence read on a Victor Light 1420 luminometer. IC50 calculations were plotted using a nonlinear regression curve fit.

Compound	IC50 [1] [µM]	IC50 [2] [µM]	IC50 [3] [µM]	JNK-3 inhibition (in words) ([3]; see Table 2)	PDE-4 inhibition (in words) [1]	PDE-10 inhibition (in words) [2]
CC(C)c1nn2ccccc2c1-c1ccnc(N)c1 [AV105, 4-(-2-isopropylpyrazolo[1,5-a]pyridin-3-yl)pyridin-2-amine]	22	> 100	> 100	–	–	–
CC(C)c1nn2ccccc2c1-c1ccnc(NC2CCCC2)c1 [AV1021, N-cyclopentyl-4-(-2-isopropylpyrazolo[1,5-a]pyridin-3-yl)pyridin-2-amine]	> 100	12	> 100	–	–	–
CC(C)Nc1nccc(-c2c(C(C)(C)C)nn3ccccc23)n1 [AV1157, 4-(2-tert-butylpyrazolo[1,5-a]pyridin-3-yl)-N-isopropylpyrimidin-2-amine]	> 100	> 100	> 100	–	–	–
CC(C)Nc1nccc(-c2c(-c3cccc(F)c3)nn3ccccc23)n1 [AV1179, 4-(2-(3-fluorophenyl)pyrazolo[1,5-a]pyridin-3-yl)-N-isopropylpyrimidin-2-amine]	> 100	> 100	0.2	particularly effective	–	–
CC(C)Nc1nccc(-c2cccc3cc(C(C)C)nn23)n1 [AV1185, N-isopropyl-4-(2-isopropylpyrazolo[1,5-a]pyridin-7-yl)pyrimidin-2-amine]	57	> 100	> 100	–	–	–
CC(C)c1cc2cccc(-c3ccnc(NC4CCCC4)n3)n2n1 [AV1186, N-cyclopentyl-4-(2-isopropylpyrazolo[1,5-a]pyridin-7-yl)pyrimidin-2-amine]	–	> 100	> 100	–	–	–
CC(C)Nc1nccc(-c2cccc3ccnn23)n1 [AV1187, N-isopropyl-4-(pyrazolo[1,5-a]pyridin-7-yl)pyrimidin-2-amine]	–	> 100	> 100	–	–	–
c1cc(-c2ccnc(NC3CCCC3)n2)n2nccc2c1 [AV1188, N-cyclopentyl-4-(pyrazolo[1,5-a]pyridin-7-yl)pyrimidin-2-amine]	–	> 100	> 100	–	–	–
CC(C)c1nn2ccccc2c1-c1ccnc(NS(C)(=O)=O)n1 [AV1189]	–	> 100	> 100	–	–	–
CC(C)c1nn2ccccc2c1-c1ccnc(NS(=O)(=O)c2ccccc2)n1 [AV1190]	40	–	> 100	–	–	–
Cc1nn2ccccc2c1-c1ccnc(NS(=O)(=O)c2ccsc2)n1 [AV1191]	6.8	> 100	> 100	–	–	–
O=S(=O)(Nc1nccc(-c2cnn3ccccc23)n1)c1ccccc1 [AV1193]	9.4	> 100	53	–	–	–
CC(C)c1nn2ccccc2c1-c1ccc(N)nc1 [AV1196, 5-(2-isopropylpyrazolo[1,5-a]pyridin-3-yl)pyridin-2-amine]	20.8	8.3	68	–	particularly effective	particularly effective
CC(C)Nc1ccc(-c2c(C(C)C)nn3ccccc23)cn1 [AV1197, N-isopropyl-5-(2-isopropylpyrazolo[1,5-a]pyridin-3-yl)pyridin-2-amine]	50.5	17	> 100	–	–	–
CC(C)c1nn2ccccc2c1-c1ccc(NC2CCCC2)nc1 [AV1199, N-cyclopentyl-5-(2-isopropylpyrazolo[1,5-a]pyridin-3-yl)pyridin-2-amine]	43	7.1	> 100	–	–	particularly effective
CC(C)Nc1cc(-c2c(C(C)C)nn3ccccc23)ccn1 [AV1202, N-isopropyl-4-(-2-isopropylpyrazolo[1,5-a]pyridin-3-yl)pyridin-2-amine]	> 100	13	> 100	–	–	–
CC(C)Nc1ncc(-c2c(C(C)C)nn3ccccc23)cn1 [AV1206, N-isopropyl-5-(-2-isopropylpyrazolo[1,5-a]pyridin-3-yl)pyrimidin-2-amine]	43	7.4	> 100	–	–	–
